{
  "source": "BindingDB's records for patent US10392346",
  "about": "(Topivert Pharma, 2019)",
  "key": {"[1]": {"molecular_target": "Proto-oncogene tyrosine-protein kinase Src (Homo sapiens, UniProt P12931)", "sequence (P12931 2-536 limits assumed)": "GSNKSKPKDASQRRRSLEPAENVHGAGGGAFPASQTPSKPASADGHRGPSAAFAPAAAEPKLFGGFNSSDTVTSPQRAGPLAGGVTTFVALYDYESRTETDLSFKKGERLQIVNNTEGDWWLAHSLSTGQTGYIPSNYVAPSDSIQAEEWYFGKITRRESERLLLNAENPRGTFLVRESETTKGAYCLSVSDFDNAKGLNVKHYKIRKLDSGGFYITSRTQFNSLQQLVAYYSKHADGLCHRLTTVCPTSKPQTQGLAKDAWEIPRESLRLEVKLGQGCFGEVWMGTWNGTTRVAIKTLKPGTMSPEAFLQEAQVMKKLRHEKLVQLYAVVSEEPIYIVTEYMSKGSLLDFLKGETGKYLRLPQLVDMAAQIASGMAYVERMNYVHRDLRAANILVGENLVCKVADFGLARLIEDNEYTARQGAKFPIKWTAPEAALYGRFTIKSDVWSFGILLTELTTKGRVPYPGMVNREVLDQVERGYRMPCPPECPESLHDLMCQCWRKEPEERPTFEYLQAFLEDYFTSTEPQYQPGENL", "assay": "Enzyme Inhibition", "experimental": "The relevant enzyme (3000 ng/mL or 2000 ng/mL respectively, 2.5 μL) is incubated with the test compound (either 1 μg/mL, 0.1 μg/mL, 0.01 μg/mL, or 0.001 μg/mL, 2.5 μL each) for 2 hr at RT. The FRET peptides (8 μM, 2.5 μL), and appropriate ATP solutions (2.5 μL, 800 μM for c-Src, and 60 μM ATP for Syk) are then added to the enzymes/compound mixtures and the mixture incubated for 1 hr. Development reagent (protease, 5 μL) is added for 1 hr prior to detection in a fluorescence microplate reader (Varioskan Flash, ThermoFisher Scientific)."}, "[2]": {"molecular_target": "Glycogen synthase kinase-3 alpha (Homo sapiens, UniProt P49840)", "sequence (P49840 whole entry, canonical isoform)": "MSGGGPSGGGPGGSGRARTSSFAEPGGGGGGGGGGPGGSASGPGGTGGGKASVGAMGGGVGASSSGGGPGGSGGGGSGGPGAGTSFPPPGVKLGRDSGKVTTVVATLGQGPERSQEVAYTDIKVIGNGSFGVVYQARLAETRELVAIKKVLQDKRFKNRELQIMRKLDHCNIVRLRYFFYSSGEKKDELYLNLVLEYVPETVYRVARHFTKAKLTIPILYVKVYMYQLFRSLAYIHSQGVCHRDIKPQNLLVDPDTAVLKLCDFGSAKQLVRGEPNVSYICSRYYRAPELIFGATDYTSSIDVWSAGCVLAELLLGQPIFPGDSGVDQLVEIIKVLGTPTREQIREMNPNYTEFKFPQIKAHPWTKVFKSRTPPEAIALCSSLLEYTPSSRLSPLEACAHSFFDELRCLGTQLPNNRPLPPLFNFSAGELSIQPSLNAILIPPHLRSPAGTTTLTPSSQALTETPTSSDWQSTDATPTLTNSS", "assay": "Enzyme Inhibition", "experimental": "In addition, the concentrations of test compound employed are either 10 μg/mL, 1 μg/mL, 0.1 μg/mL, or 0.01 μg/m: Method 1: The inhibitory activities of test compounds against the p38 MAPKα isoform (MAPK14: Invitrogen) are evaluated indirectly by determining the level of activation/phosphorylation of the down-stream molecule, MAPKAP-K2. The p38 MAPKα protein (80 ng/mL, 2.5 μL) is mixed with the test compound (2.5 μL of either 4 μg/mL, 0.4 μg/mL, 0.04 μg/mL or 0.004 μg/mL) for 2 hr at RT. […] The mixture is incubated for 1 hr at RT. Development reagent (protease, 5 μL) is added for 1 hr prior to detection in a fluorescence microplate reader (Varioskan Flash, ThermoFisher Scientific)."}},
  "data": [
    {"compound": "COc1cc(Nc2cc(Oc3ccc(NC(=O)Nc4cc(C(C)(C)C)cc(N[S+](C)[O-])c4OC)c4ccccc34)ccn2)ccc1C(=O)NCCN1CCN(C)CC1", "note": "(stereo unspecified) [US10392346, Example 17(a)]", "values": [
      {"measurement": "IC50", "setting": "[1]", "value": 16, "unit": "nM"},
      {"measurement": "IC50", "setting": "[2]", "value": 4000, "unit": "nM"}
    ]},
    {"compound": "COc1cc(Nc2cc(Oc3ccc(NC(=O)Nc4cc(C(C)(C)C)cc(NS(C)(=O)=O)c4OC)c4ccccc34)ccn2)ccc1C(=O)N(C)CCCN1CC[S+]([O-])CC1", "note": "[US10392346, Example 17(ag)]", "values": [
      {"measurement": "IC50", "setting": "[1]", "value": 17, "unit": "nM"},
      {"measurement": "IC50", "setting": "[2]", "value": 2740, "unit": "nM"}
    ]},
    {"compound": "COc1cc(Nc2cc(Oc3ccc(NC(=O)Nc4cc(C(C)(C)C)cc(NS(C)(=O)=O)c4OC)c4ccccc34)ccn2)ccc1C(=O)N(C)CCCN1CCS(=O)(=O)CC1", "note": "[US10392346, Example 17(ah)]", "values": [
      {"measurement": "IC50", "setting": "[1]", "value": 20, "unit": "nM"},
      {"measurement": "IC50", "setting": "[2]", "value": 9190, "unit": "nM"}
    ]}
  ]
}
